The results in this text go back to US20260217706A1, “HETEROCYCLIC COMPOUNDS, PREPARATION METHOD THEREFOR AND USE THEREOF” (GUANGZHOU YUFAN NANTU BIOTECHNOLOGIES CO., LTD, priority 2023, published 2026).

For test [1], the target named is CBL-B protein (Homo sapiens, UniProt Q13191). The experiment in a line: CBL-B binding experiment (Streptavidin-Tb cryptate / Ligand L1 displacement). As to conditions: 8 nM CBL-B protein, 25° C., 60 minutes; Ki=Relative IC50/2. The method, boiled down: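 Compounds in a 10-point DMSO series met 8 nM CBL-B protein in HEPES pH 7.5/NaCl/Triton/TCEP/BSA buffer at 25° C. for 60 min. A further 60 min at room temperature preceded the luminescence read, normalised to no-protein and DMSO wells. Ki was taken as relative IC50 divided by 2.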

The test system of test [2] is anti-CD3 activated human PBMCs. The experiment in a line: Effect of compounds on the level of IL-2 secretion by anti-CD3 activated human PBMCs (IL-2 ELISA). The class given is cell-based. The conditions noted are these: compound concentration at which fold change in IL-2 = 5; hPBMCs, CD3 antibody 2 μg/mL, 48 h, compound from 3 μM. The method, boiled down:
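Human PBMCs were preincubated 1 h, then exposed to compound (10 points, 3-fold from 3 μM final) with anti-CD3 at 2 μg/mL for 48 h at 37° C. Supernatant IL-2 was measured by ELISA as fold change over DMSO.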

Bounds are passed on as bounds.

Chain of CBL-B protein (Q13191 whole entry): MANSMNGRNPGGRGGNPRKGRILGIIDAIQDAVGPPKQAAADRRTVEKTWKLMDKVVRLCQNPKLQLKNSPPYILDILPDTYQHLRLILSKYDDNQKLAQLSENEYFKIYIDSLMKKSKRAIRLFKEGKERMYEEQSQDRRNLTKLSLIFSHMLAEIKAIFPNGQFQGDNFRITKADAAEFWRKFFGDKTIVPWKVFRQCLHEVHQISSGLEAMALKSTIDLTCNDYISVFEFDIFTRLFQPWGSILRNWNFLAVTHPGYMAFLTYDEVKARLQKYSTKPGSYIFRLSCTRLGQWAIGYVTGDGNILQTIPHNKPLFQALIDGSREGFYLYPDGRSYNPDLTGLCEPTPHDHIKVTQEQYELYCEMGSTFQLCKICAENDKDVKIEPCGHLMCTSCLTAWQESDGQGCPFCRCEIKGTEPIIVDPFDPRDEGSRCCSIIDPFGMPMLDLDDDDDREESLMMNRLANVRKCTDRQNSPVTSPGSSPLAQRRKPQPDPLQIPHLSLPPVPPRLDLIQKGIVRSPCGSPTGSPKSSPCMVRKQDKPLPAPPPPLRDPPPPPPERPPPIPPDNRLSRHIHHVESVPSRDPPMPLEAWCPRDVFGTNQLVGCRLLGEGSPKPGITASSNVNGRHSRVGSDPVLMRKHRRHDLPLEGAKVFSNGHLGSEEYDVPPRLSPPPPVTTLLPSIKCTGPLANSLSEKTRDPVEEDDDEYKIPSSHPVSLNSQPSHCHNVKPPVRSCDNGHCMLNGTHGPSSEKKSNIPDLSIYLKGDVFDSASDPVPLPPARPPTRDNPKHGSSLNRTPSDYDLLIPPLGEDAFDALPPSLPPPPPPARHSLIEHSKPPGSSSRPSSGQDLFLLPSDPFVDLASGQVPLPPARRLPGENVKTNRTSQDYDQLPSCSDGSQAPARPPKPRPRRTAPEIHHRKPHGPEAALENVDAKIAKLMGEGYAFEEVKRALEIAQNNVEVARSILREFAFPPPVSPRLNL

What is called Ki is a dissociation constant, usually derived from enzyme kinetics or from competition with a known ligand. A lower Ki goes with tighter binding. For `CCN(Cc1cc2c(C(F)(F)F)cn(-c3cccc([C@]4(c5nncn5C)C[C@@H](C)C4)c3)c(=O)c2[nH]1)CC(C)C` [Compound T069, 2-((ethyl(isobutyl)amino)methyl)-6-(3-((1s,3s)-3-methyl-1-(4-methyl-4H-1,2,4-triazol-3-yl)cyclobutyl)phenyl)-4-(trifluoromethyl)-1,6-dihydro-7H-pyrrolo[2,3-c]pyridin-7-one], the Ki in test [1] was under 50 nM. In test [2], the “IL-2 CFC=5/nM” value is given as under 500 nM.
In the same order, the values of `C[C@H]1CCCN(Cc2cc3c(C(F)(F)F)cn(-c4cccc(C5(c6nncn6C)CC(F)C5)c4)c(=O)c3[nH]2)C1` (stereo partly drawn) [Compound T070, 6-[3-[3-fluoro-1-(4-methyl-1,2,4-triazol-3-yl)cyclobutyl]phenyl]-2-[[(3S)-3-methyl-1-piperidyl]methyl]-4-(trifluoromethyl)-1H-pyrrolo[2,3-c]pyridin-7-one] are under 50 nM and under 500 nM.
The matching figures for `C[C@H]1CCCN(Cc2cc3c(C(F)(F)F)cn(-c4cccc([C@]5(c6nncn6C)C[C@@H](F)C5)c4)c(=O)c3[nH]2)C1` [Compound T071, 6-[3-[3-fluoro-1-(4-methyl-1,2,4-triazol-3-yl)cyclobutyl]phenyl]-2-[[(3S)-3-methyl-1-piperidyl]methyl]-4-(trifluoromethyl)-1-H-pyrrolo[2,3-c]pyridin-7-one]: under 50 nM and under 500 nM.
The matching figures for `C[C@H]1CCCN(Cc2cc3c(C4CC4)cn(-c4cccc(C5(Cc6nncn6C)CC(F)(F)C5)c4)c(=O)c3[nH]2)C1` [Compound T077, 4-cyclopropyl-6-[3-[3,3-difluoro-1-[(4-methyl-1,2,4-triazol-3-yl)methyl]cyclobutyl]phenyl]-2-[[(3S)-3-methyl-1-piperidyl]methyl]-1H-pyrrolo[2,3-c]pyridin-7-one]: under 50 nM and under 500 nM.
Consider `Cn1cnnc1C1(c2cccc(-n3cc(C(F)(F)F)c4cc(CN5CCC[C@@H](CC#N)C5)[nH]c4c3=O)c2)CCC1` [Compound T080, (S)-2-(1-((6-(3-(1-(4-methyl-4H-1,2,4-triazol-3-yl)cyclobutyl)phenyl)-7-oxo-4-(trifluoromethyl)-6,7-dihydro-1H-pyrrolo[2,3-c]pyridin-2-yl)methyl)piperidin-3-yl)acetonitrile], for which the Ki in test [1] was under 50 nM. The “IL-2 CFC=5/nM” value in test [2] is recorded as under 500 nM.
The molecule `C[C@H]1CCCN(Cc2cc3c(C(F)(F)F)cn(-c4cccc(C5(c6nncn6C)CC6(CC6)C5)c4)c(=O)c3[nH]2)C1` [Compound T084, 2-[[(3S)-3-methyl-1-piperidyl]methyl]-6-[3-[5-(4-methyl-1,2,4-triazol-3-yl)spiro[2.3]hexan-5-yl]phenyl]-4-(trifluoromethyl)-1H-pyrrolo[2,3-c]pyridin-7-one] showed a Ki in test [1] of under 50 nM. In addition, the “IL-2 CFC=5/nM” value in test [2] is listed as under 500 nM.
In test [1], `CC=C1CC(c2cccc(-n3cc(C(F)(F)F)c4cc(CN5CCC[C@H](C)C5)[nH]c4c3=O)c2)(c2nncn2C)C1` (stereo partly drawn) [Compound T085, 6-[3-[3-ethylidene-1-(4-methyl-1,2,4-triazol-3-yl)cyclobutyl]phenyl]-2-[[(3S)-3-methyl-1-piperidyl]methyl]-4-(trifluoromethyl)-1H-pyrrolo[2,3-c]pyridin-7-one] showed a Ki of under 50 nM. Moreover, in test [2], the “IL-2 CFC=5/nM” value is under 500 nM.
The matching figures for `Cn1cnnc1C1(c2cccc(-n3cc(C(F)(F)F)c4cc(CN5C[C@H]6CCCC[C@H]6C5)[nH]c4c3=O)c2)CCC1` [Compound T086, 2-[[(3aS,7aR)-1,3,3a,4,5,6,7,7a-octahydroisoindol-2-yl]methyl]-6-[3-[1-(4-methyl-1,2,4-triazol-3-yl)cyclobutyl]phenyl]-4-(trifluoromethyl)-1H-pyrrolo[2,3-c]pyridin-7-one]: under 50 nM and under 500 nM.
